In PMC11862924, “Phenylpyrazoles as Inhibitors of the m^6A RNA-Binding Protein YTHDF2” (JACS Au, 2025):

What was measured:
[1] = biological target: T1, YTHDF2 (residues 383–553) (Homo sapiens, UniProt Q9Y5A9); assay: Fluorescence polarization (FP) assay, YTHDF2–m6A RNA interaction; format: binding; conditions: 100 μM compound; YTHDF2 (residues 383–553, 20 nM), FAM-labeled m6A RNA probe 5 nM; average ± SD
T1 construct: A YTHDF2 YTH domain construct (residues 383–553) was subcloned to a pOPIN plasmid; made in house; host or cells: Escherichia coli BL21(DE3)
T1 sequence (Q9Y5A9 383-553): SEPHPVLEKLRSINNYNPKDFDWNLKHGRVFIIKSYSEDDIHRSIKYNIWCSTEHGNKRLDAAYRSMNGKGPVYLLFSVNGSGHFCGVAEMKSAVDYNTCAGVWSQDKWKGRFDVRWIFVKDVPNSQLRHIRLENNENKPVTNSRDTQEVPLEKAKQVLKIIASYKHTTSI
Protocol: The FP assay was performed in 384-well black plates (Corning no. 4514) with a total reaction volume of 15 μL. The final concentrations of protein (YTHDF2) and RNA were […], respectively, in a buffer containing 20 mM HEPES/KOH pH 7.5, 50 mM NaCl, 0.005% Tween 20, and 1 mM GSH (DTT). Compounds were incubated with protein, added FAM-m^6A RNA probe ([…](m6)ACUGUG) (purchased from IDT), and incubated at 4 °C for 30 min. The fluorescence polarization was measured using a plate reader (TECAN Spark) under an excitation wavelength of 485 nm and an emission wavelength of 535 nm with a bandwidth of 20 nm. […] The data were determined using GraphPad Prism 9.

[2] = MTT cytotoxicity assay, JAR; format: cell-based; conditions: human, JAR cells, triplicates, read-out: Cytotoxicity against cancer cells (IC50), JAR
Protocol: (§1) JAR, K562, and HCT116 cells were seeded in 96-well plates (3500 cells/well) and incubated for 8 h. The medium with different concentrations of compounds (100, 33.3, 11.1, 3.7, 1.2, and 0.4 μM) was added to the 96-well plates. Data were normalized to the medium with 0.1% DMSO. After incubation for 72 h, MTT solution (5 mg/mL, 20 μL) was added per well in a dark environment and incubated for 4 h. After the medium was discarded, DMSO (150 μL) was added per well, and the absorbance was measured at 492 nm by a plate reader (TECAN Spark).

[3] = MTT cytotoxicity assay, K562; format: cell-based; conditions: human, K562 cells, triplicates, read-out: Cytotoxicity against cancer cells (IC50), K562
Protocol: as §1

[4] = MTT cytotoxicity assay, HCT116; format: cell-based; conditions: human, HCT116 cells, triplicates, read-out: Cytotoxicity against cancer cells (IC50), HCT116
Protocol: as §1

JAR = assay: CCK-8 proliferation assay, JAR; format: cell-based; conditions: Homo sapiens; CCK-8 kit assay, triplicates, 72 h; read-out: Anti-proliferation activity against cancer cells (IC50), JAR
Protocol: (§2) The JAR, K562, HCT116, and MOLM13 cells were seeded in 96-well plates (3000 cells/well). After being cultured overnight, compounds were added together with the DMSO treatment (0.1%) as a control. After 72 h, CCK-8 solution (Vazyme, A311) was added, and the cells were incubated at 37 °C for 4 h. The absorbance was measured at 450 nm using a plate reader (TECAN Spark).

K562 = assay: CCK-8 proliferation assay, K562; format: cell-based; conditions: Homo sapiens, CCK-8 kit assay, triplicates, 72 h, read-out: Anti-proliferation activity against cancer cells (IC50), K562
Protocol: as §2

HCT116 = assay: CCK-8 proliferation assay, HCT116; format: cell-based; conditions: Homo sapiens, HCT-116; CCK-8 kit assay, triplicates, 72 h; read-out: Anti-proliferation activity against cancer cells (IC50), HCT116
Protocol: as §2

SMILES | inhibition at 100 µM [1] [%] | IC50 at 72 h [2] [µM] | IC50 at 72 h [3] [µM] | IC50 at 72 h [4] [µM] | IC50 (JAR) [µM] | IC50 (K562) [µM] | IC50 (HCT116) [µM] | inhibition at 100 μM in the FP assay [1] [%]
O=C(c1cnn(-c2ccccc2)c1)c1ccccc1O [CK-22] | -3.7 ± 7.8 | 48.1 ± 10.2 | 32.1 ± 12.2 | 43.5 ± 12.3 | 27.6 ± 2.8 | 28.3 ± 5.4 | > 50 | 
O=C(O)c1cccc(-n2cc(C(=O)c3ccccc3O)cn2)c1 [CK-23, 3-(4-(2-hydroxybenzoyl)-1H-pyrazol-1-yl)benzoic acid] |  | 45 ± 4.6 | 21.5 ± 8.2 | 12.9 ± 2.5 | > 50 | > 50 | > 50 | 
O=C(O)c1ccc(-n2cc(C(=O)c3ccccc3O)cn2)cc1 [CK-24] | 5.2 ± 6.7 | > 50 | 43.2 ± 15.7 | > 50 | > 50 | > 50 | > 50 | 
O=C(c1cnn(-c2ccccc2C(=O)O)c1)c1ccccc1O [CK-25] | 22.1 ± 3.3 | > 50 | 44.3 ± 13.1 | > 50 | > 50 | > 50 | > 50 | 
O=C(c1cnn(-c2ccc(F)cc2)c1)c1ccccc1O [CK-26] | 10.7 ± 7.2 | 47.2 ± 15.5 | 23.4 ± 9.4 | 29.4 ± 10.4 | 31.2 ± 6.4 | 21.5 ± 1.9 | 43.2 ± 5.3 | 
O=C(c1cnn(-c2ccc(Cl)cc2)c1)c1ccccc1O [CK-27] | -5.2 ± 2.8 | > 50 | > 50 | > 50 | > 50 | 44.8 ± 8.7 | 45.6 ± 2.5 | 
O=C(c1cnn(-c2ccc(Br)cc2)c1)c1ccccc1O [CK-28] | 42.2 ± 12.1 | > 50 | > 50 | > 50 | > 50 | > 50 | > 50 | 
N#Cc1ccc(-n2cc(C(=O)c3ccccc3O)cn2)cc1 [CK-38] | 44.5 ± 7.1 | > 50 | 43.2 ± 11.2 | > 50 | > 50 | > 50 | > 50 | 
O=C(c1cnn(-c2ccc(OC(F)(F)F)cc2)c1)c1ccccc1O [CK-39] | 6.9 ± 3.3 | 46.2 ± 20.8 | 19.8 ± 14.3 | 26.4 ± 10.3 | 31.2 ± 3.5 | 25.6 ± 2.3 | 38.9 ± 12.1 | 
COc1ccc(-n2cc(C(=O)c3ccccc3O)cn2)cc1 [CK-40] | -4.8 ± 3.2 | 44.6 ± 12.3 | 33.2 ± 5.8 | 25.5 ± 1.8 | > 50 | 39.2 ± 6.1 | > 50 | 
O=C(c1cnn(-c2ccccc2F)c1)c1ccccc1O [CK-43] | 24.4 ± 2.1 | > 50 | 46.2 ± 10.1 | > 50 | > 50 | > 50 | > 50 | 
O=C(c1cnn(-c2ccccc2Cl)c1)c1ccccc1O [CK-44] | 0.8 ± 7 | 44.7 ± 14.4 | 32.3 ± 8.8 | 18.5 ± 14.1 | 41.2 ± 8.5 | 34.9 ± 3.5 | > 50 | 
Cc1ccccc1-n1cc(C(=O)c2ccccc2O)cn1 [CK-45] | 22.1 ± 6.6 | 43.2 ± 15.5 | 21.9 ± 7.6 | 26 ± 16.8 | 42.8 ± 1.2 | 33.1 ± 5.7 | > 50 | 
COc1ccccc1-n1cc(C(=O)c2ccccc2O)cn1 [CK-46] | 5.4 ± 4.2 | > 50 | 23.8 ± 4.7 | 49.4 ± 22.1 | > 50 | 42.9 ± 6.2 | > 50 | 
COc1ccc(-n2cc(C(=O)c3ccccc3O)cn2)cn1 [CK-47] | 25.5 ± 6.7 | > 50 | > 50 | > 50 | > 50 | > 50 | > 50 | 
O=C(c1cnn(-c2ccc(C(F)(F)F)cc2)c1)c1ccccc1O [CK-48] | 17.5 ± 4.2 | 37 ± 12.7 | 22.8 ± 2.5 | 43.1 ± 8.6 | > 50 | > 50 | > 50 | 
NS(=O)(=O)c1ccc(-n2cc(C(=O)c3ccccc3O)cn2)cc1 [CK-49] | 1.7 ± 6.5 | 34.6 ± 5.9 | 20.1 ± 12.3 | 29 ± 11.4 | > 50 | > 50 | > 50 | 
CS(=O)(=O)c1ccc(-n2cc(C(=O)c3ccccc3O)cn2)cc1 [CK-50] | 24.3 ± 4 | > 50 | 48.2 ± 11.1 | > 50 | > 50 | > 50 | > 50 | 
Cc1ccc(-n2cc(C(=O)c3ccccc3O)cn2)cc1 [CK-51] | 4.1 ± 3.7 | 32.9 ± 14.2 | 20.2 ± 15.4 | 18.5 ± 9.4 | > 50 | 30.1 ± 6.3 | > 50 | 
Cc1ccc(O)c(C(=O)c2cnn(-c3ccc(C(=O)O)cc3)c2)c1 [CK-54] | 20.9 ± 3.8 | > 50 | > 50 | > 50 | > 50 | > 50 | > 50 | 
O=C(O)c1ccc(-n2cc(C(=O)c3cc(Br)ccc3O)cn2)cc1 [CK-60] | 63.6 ± 10.8 | 37.1 ± 11.4 | 16.4 ± 8.2 | 12.5 ± 6.4 | > 50 | > 50 | > 50 | 
COC(=O)c1ccc(-n2cc(/C=C(\C#N)C(N)=O)cn2)cc1 [CK-94] | < 30 |  |  |  |  |  |  | 26.6 ± 1.9
